Measurements taken from patent US20250213563A1, “SUBSTITUTED PYRIMIDIN-4(3H)-ONES FOR USE IN TREATING CANCER” (NAVIRE PHARMA, INC., priority 2021, published 2025).

What was measured:
[1] = target: T1, Hematopoietic Progenitor Kinase 1 (HPK1) (Homo sapiens, UniProt Q92918); assay: KINOMEscan competition binding and Kd dose-response
T1 construct: purchased DiscoverX (KINOMEscan platform)
Experimental: Activity of Compound (10b) (1 μM) was assessed against a panel of 419 human kinases (including a set of disease-relevant mutant variants). Assays were conducted using the KINOMEscan™ platform from DiscoverX which measures compound interaction with kinases using active site-directed competition binding assays. Displacement of ligand binding to the kinase by <35% of the control value is considered significant. Of the 419 kinases tested, only 4 kinases reached this level of displacement: Protein kinase C eta (PRKCH), 34% control; Large tumor suppressor kinase 1 (LATS1), 32% control; General control nonderepressible 2 kinase (GCN2), 21% control; and Hematopoietic Progenitor Kinase 1 (HPK1), 4.4% control.
HPK1 is a hematopoietic cell-restricted serine/threonine kinase and is not expressed in any major organs. HPK1 has been implicated in activation of c-Jun N-terminal kinases (JNK) and genetic disruption of HPK1 is reported to enhance the antitumor immune response of T cells and dendritic cells (Hu et al 1996; Sawasdikosol et al 2012).

[2] = tested on: HCC827 cell line-derived xenograft (CDX) model; assay: Monotherapy anti-tumor activity, HCC827 CDX model; assay type: in vivo; details: for tumor growth inhibition (TGI): day 1 to day 28
Experimental: An in vivo efficacy study was conducted to evaluate the monotherapy anti-tumor activity of Compound (10b) in female BALB/c nude mice bearing the non-small cell lung cancer (NSCLC) HCC827 cell line-derived xenograft (CDX) model, which harbors an EGFR exon 19 deletion (EGFR^ex19del) and EGFR amplification (EGFRamp). Mice (n=10 per group) were dosed daily orally with the indicated levels of Compound (10b) from day 1 to day 28, and a dose dependent reduction in tumor volume was observed. […] All groups dosed QD, PO Two-way mixed-effects ANOVA: *p<0.0001 vs vehicle.
In vivo efficacy studies were conducted to evaluate the monotherapy anti-tumor activity of Compound (10b) across a panel of cell line-derived xenograft (CDX) models. […] Significant anti-tumor efficacy was also observed in two CDX models with acquired resistance to EGFR inhibitors.

T1 sequence (Q92918 whole entry): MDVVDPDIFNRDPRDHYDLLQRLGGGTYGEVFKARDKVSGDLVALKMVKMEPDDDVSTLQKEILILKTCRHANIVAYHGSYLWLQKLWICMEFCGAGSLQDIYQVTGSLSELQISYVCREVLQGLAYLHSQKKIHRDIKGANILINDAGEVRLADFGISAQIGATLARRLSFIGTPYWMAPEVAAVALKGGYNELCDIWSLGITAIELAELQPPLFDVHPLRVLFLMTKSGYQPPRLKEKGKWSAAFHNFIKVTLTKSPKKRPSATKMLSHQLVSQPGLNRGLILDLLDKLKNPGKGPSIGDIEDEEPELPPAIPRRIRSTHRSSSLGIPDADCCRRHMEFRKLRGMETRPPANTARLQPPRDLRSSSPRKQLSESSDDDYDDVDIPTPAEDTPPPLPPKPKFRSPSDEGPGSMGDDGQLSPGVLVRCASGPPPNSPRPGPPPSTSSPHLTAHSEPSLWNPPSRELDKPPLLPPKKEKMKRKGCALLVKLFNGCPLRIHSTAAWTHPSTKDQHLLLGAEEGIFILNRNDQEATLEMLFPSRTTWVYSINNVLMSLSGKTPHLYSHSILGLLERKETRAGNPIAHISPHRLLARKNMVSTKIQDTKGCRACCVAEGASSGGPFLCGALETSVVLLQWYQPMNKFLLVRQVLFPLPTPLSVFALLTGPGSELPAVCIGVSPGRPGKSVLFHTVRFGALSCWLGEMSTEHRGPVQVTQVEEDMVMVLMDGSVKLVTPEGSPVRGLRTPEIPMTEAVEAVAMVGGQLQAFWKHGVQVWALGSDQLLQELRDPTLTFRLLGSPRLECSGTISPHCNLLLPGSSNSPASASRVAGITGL

Question: With Cc1c(N2CCC3(CC2)CO[C@@H](C)[C@H]3N)nc(C)n(-c2cccc(Cl)c2Cl)c1=O (atropisomer, axis not shown; (Ra)) [Compound (10b), 6-((3S,4S)-4-amino-3-methyl-2-oxa-8-azaspiro[4.5]decan-8-yl)-3-(Ra)-(2,3-dichlorophenyl)-2,5-dimethylpyrimidin-4(3H)-one] as the compound, how does the ligand binding, % of control at 1 µM ([1]; 1 μM) read?
Answer: Its ligand binding, % of control at 1 µM is 4.4%.

Question: What about the Kd ([1]; dose-response curve) of the same compound?
Answer: Its Kd is 9.8 µM.

Question: What about the “tumor growth inhibition (TGI)” value ([2]; 3 mg/kg QD PO) of the same compound?
Answer: The value was 41%.

Question: And the “tumor growth inhibition (TGI)” value ([2]; 10 mg/kg QD PO)?
Answer: The value was 84%.

Question: What about the “tumor growth inhibition (TGI)” value ([2]; 30 mg/kg QD PO) of the same compound?
Answer: The value was 98%.

Question: What about the mean tumor regression ([2]; 100 mg/kg QD PO) of the same compound?
Answer: The mean tumor regression was 60%.

Question: What about the “impact of treatment on body weight” value ([2]; 3-100 mg/kg QD PO) of the same compound?
Answer: The value was “no impact”.

Question: What about the tolerability ([2]; 3-100 mg/kg QD PO) of the same compound?
Answer: Its tolerability is “well tolerated”.

Question: What about the ED90 ([2]; QD PO) of the same compound?
Answer: Its ED90 is 10 mg/kg.
